Test systems include A549; DLD-1; HCT-15; HL-60; HOP-92; HT-29; K562; MOLT-4; NCI/ADR-RES; OVCAR-4; OVCAR-5; RPMI-8226; RXF 393; SK-MEL-28; SN12C; SNB-75; MDA-N; SR; T47D; TK-10.
Common to all, as to test: NCI anticancer screen, dose series, 48 h

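Cells were grown in 96-well plates and exposed to each compound for 48 hours at five concentrations; endpoints were interpolated linearly between bracketing concentrations, or set to the highest concentration if not reached. Abbreviation: GI50, concentration required for 50% inhibition of growth.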 Active and inactive are the calls of the source. Cut-off read from the data, not from the text of the source: active = GI50 up to about 1.1 µM and inactive = higher.

In the case of `O=C(N[C@@H](c1ccccc1)[C@@H](O)C(=O)OCc1ccc2c(c1)OCO2)c1ccccc1`, the GI50 was > 100 µM (inactive) in the experiment on A549; > 100 µM (inactive) in the experiment on DLD-1; above 100 µM in the experiment with HCT-15; > 100 µM (inactive) with HL-60; > 86.7 µM (inactive) with HOP-92; > 100 µM (inactive) with HT-29. Moreover, the GI50 in the experiment on K562 is > 100 µM (inactive); in the experiment with MOLT-4, > 91.8 µM (inactive); in the experiment on NCI/ADR-RES it was > 42.1 µM (inactive); in the experiment with OVCAR-4, > 100 µM (inactive); with OVCAR-5, > 31.6 µM (inactive); in the experiment with RPMI-8226, > 100 µM (inactive). Besides, the GI50 was 52.8 µM (inactive) in the experiment on RXF 393, > 100 µM (inactive) in the experiment on SK-MEL-28, > 100 µM (inactive) in the experiment on SN12C and > 90.4 µM (inactive) in the experiment with SNB-75.

With `CC1C(=O)CC(c2cccs2)N(N=O)C1c1cccs1` (configuration not stated), the GI50 is 58.3 µM (inactive) in the experiment with A549; 70.3 µM (inactive) with DLD-1; 46.1 µM with HCT-15; 26.7 µM (inactive) in the experiment on HL-60; 23.7 µM (inactive) in the experiment with HOP-92; 23.5 µM (inactive) with HT-29. In addition, the GI50 is 15.8 µM (inactive) in the experiment with K562; 25.8 µM (inactive) with MOLT-4; 26.6 µM (inactive) in the experiment on NCI/ADR-RES; 50.2 µM (inactive) in the experiment with OVCAR-4; > 100 µM (inactive) with OVCAR-5; 23.7 µM (inactive) with RPMI-8226. The GI50 is 24.9 µM (inactive) in the experiment with RXF 393, 53.2 µM (inactive) in the experiment with SK-MEL-28, 69.8 µM (inactive) in the experiment with SN12C and 33.1 µM (inactive) in the experiment with SNB-75.

Regarding `CCCC/C=C1\CCC(CN2CCOCC2)C1=O` (configuration not stated), the GI50 with A549 was 20.4 µM (inactive); in the experiment with DLD-1 it was 1.75 µM (inactive); in the experiment on HL-60, 1.57 µM (inactive); in the experiment with HOP-92, 1.83 µM (inactive); in the experiment with HT-29, 3.48 µM (inactive); with K562, 1.19 µM (inactive). The GI50 was 10.7 µM (inactive) with MDA-N; 2.02 µM (inactive) in the experiment with MOLT-4; 11.7 µM (inactive) with OVCAR-4; 17.4 µM (inactive) with OVCAR-5; 0.15 µM (active) in the experiment with RPMI-8226; 1.51 µM (inactive) in the experiment on RXF 393. Moreover, the GI50 in the experiment on SK-MEL-28 was 3.24 µM (inactive); in the experiment on SN12C, 4.57 µM (inactive); in the experiment on SNB-75, 2.27 µM (inactive); in the experiment with SR it was 1.73 µM (inactive); in the experiment on T47D, 5.19 µM (inactive); with TK-10, 9.31 µM (inactive).

`CC(=O)C(=Cc1cn(C)c(=O)n(C)c1=O)C(C)=O`: the GI50 in the experiment on A549 is 157 µM (inactive); in the experiment on DLD-1, 94.8 µM (inactive); in the experiment on HCT-15, 94 µM; in the experiment with HL-60 it was 84.3 µM (inactive); with HOP-92, 2.62 µM (inactive); in the experiment with HT-29, 113 µM (inactive). Further, the GI50 in the experiment on K562 is 138 µM (inactive); with MOLT-4, 119 µM (inactive); with NCI/ADR-RES, 93.1 µM (inactive); with OVCAR-4, 105 µM (inactive); with OVCAR-5 it was 97.7 µM (inactive); in the experiment with RPMI-8226, 89.9 µM (inactive). In addition, the GI50 in the experiment with RXF 393 was 60.1 µM (inactive); in the experiment on SK-MEL-28, 100 µM (inactive); in the experiment with SN12C, 99.1 µM (inactive); in the experiment on SNB-75, 65 µM (inactive).

As to `CCOC(=O)/C=C/c1c[nH]c(=O)[nH]c1=O`, the GI50 with A549 is > 75 µM (inactive); with DLD-1, > 75 µM (inactive); with HCT-15, above 75 µM; in the experiment with HL-60, > 75 µM (inactive); with HOP-92 it was > 75 µM (inactive); in the experiment with HT-29, > 75 µM (inactive). The GI50 in the experiment with K562 is > 75 µM (inactive); in the experiment on MOLT-4, > 33.4 µM (inactive); in the experiment on NCI/ADR-RES, > 75 µM (inactive); in the experiment with OVCAR-4 it was > 75 µM (inactive); in the experiment with OVCAR-5, > 75 µM (inactive); with RPMI-8226, > 39.4 µM (inactive). In addition, the GI50 with RXF 393 was > 75 µM (inactive); in the experiment with SK-MEL-28 it was > 75 µM (inactive); in the experiment on SN12C, > 75 µM (inactive); in the experiment with SNB-75 it was > 72.6 µM (inactive).

The record behind these values is ChEMBL document CHEMBL1201862, “PubChem BioAssay data set” (2004).
